According to EP2112152A1, “Dihydropteridinones as Plk Inhibitors” (GPC Biotech AG, priority 2008, dated 2009):

Tests used:
Assay type in all cases: cell-based
[1] = system: HCT 116; experiment: SRB cell proliferation assay, HCT 116; conditions: Homo sapiens, HCT-116, 72 h, 72 hours, SRB assay; read-out: CELLULAR IC50 HCT 116
Experimental: (§1) We observed the surprising finding that compounds of the invention were useful in inhibiting proliferation of tumor cell lines (see Table 3).
(§2) Cells were exposed to the test compounds at various concentrations appropriate to determine an IC50 for 72 hours. Cell proliferation was measured using the SRB assay according to Shekan et al (J Natl Cancer Inst (1990) 82, 1107-112) in order to estimate the IC50 values shown in Table 3. Briefly, cells were plated in 96 well dishes 24 hours prior to compound addition at the densities specified in Table 5.1. The assay was terminated with the addition of cold TCA to a final concentration of 10% after growth medium has been removed and the plates were incubated over night at 4°C. The plates were then washed 5 times with water and 100µl of a Sulforhodamine B solution (4%) was added to each well. The plates were then incubated for 10 minutes at room temperature before removal of unbound dye by washing with 1% acetic acid. The bound dye was solubilised with 10 mM Trizma base and the absorbance read at OD520.
(§3) Inhibitory activity of the compounds (IC) was calculated as % inhibition of cell proliferation compared to cells treated with the solvent (DMSO).
(§4) Table 8.1: 18-Cell Line Panel

[2] = system: HT-29; experiment: SRB cell proliferation assay, HT-29; conditions: Homo sapiens, HT-29, 72 h, 72 hours, SRB assay; read-out: CELLULAR IC50 HT-29
Experimental: as §1, §2, §3, §4

[3] = system: IMR-90; experiment: SRB cell proliferation assay, IMR-90; conditions: Homo sapiens, 72 hours, SRB assay, slow cycling cell line, read-out: CELLULAR IC50 IMR-90
Experimental: as §1, §2, §3, §4

[4] = target: Plk1 (Homo sapiens, UniProt P53350); experiment: Cellular Plk1 kinase activity: nucleophosmin (B23) Ser4 phosphorylation in HCT116 cells (MSD electrochemiluminescence); design: host or cells: HCT116; conditions: 100 ng/ml nocodazole, 4 hours after compound addition, read-out: Biochemical IC50 Nucleophosmin assay
Chain of Plk1 (P53350 whole entry, species assumed): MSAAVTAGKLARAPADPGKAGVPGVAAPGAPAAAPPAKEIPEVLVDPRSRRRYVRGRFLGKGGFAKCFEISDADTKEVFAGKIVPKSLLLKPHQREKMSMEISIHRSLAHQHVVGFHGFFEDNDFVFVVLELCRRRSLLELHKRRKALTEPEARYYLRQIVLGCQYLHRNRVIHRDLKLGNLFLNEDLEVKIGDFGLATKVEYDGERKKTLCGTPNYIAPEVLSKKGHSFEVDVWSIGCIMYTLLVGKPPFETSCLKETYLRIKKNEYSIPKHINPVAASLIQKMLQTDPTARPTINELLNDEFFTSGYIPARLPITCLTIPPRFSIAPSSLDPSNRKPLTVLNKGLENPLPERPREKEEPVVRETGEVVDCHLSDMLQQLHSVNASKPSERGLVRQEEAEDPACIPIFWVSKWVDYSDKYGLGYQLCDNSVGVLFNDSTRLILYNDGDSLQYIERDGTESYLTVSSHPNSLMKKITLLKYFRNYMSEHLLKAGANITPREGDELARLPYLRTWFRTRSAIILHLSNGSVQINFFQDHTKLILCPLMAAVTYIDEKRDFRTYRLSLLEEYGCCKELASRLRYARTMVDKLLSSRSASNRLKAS
Experimental: We observed the surprising finding that compounds of the invention were able to penetrate cell membranes and retained their activity as Plk1 inhibitors against native Plk1 expressed within living cancer cells.
Cellular Plk1 kinase activity was measured by quantification of nucleophosmin (B23) Ser4 phosphorylation in a cancer cell line. Nucleophosmin (B23) Ser4 is phosphorylated by Plk1, and this phosphorylation can be specifically detected by cross-reactivity of a phospho-Mek1/2 antibody that is able to recognizes a mitotic-specific phosphorylated form of nucleophosmin (B23) in a nocodazole dependent way (Zhang, H., Shi, X., Paddon, H., Hampong, M., Dai, W., and Pelech, S. (2004) B23/Nuleophosmin Serin 4 Phosphorylation Mediates Mitotic Functions of Polo-like Kinase 1. J. Biol. Chem., 279(34), 35726-35734).
Briefly, HCT116 cells (ATCC, Order No. CCL-247) were plated in 96 well dishes 24 hours prior to nocodazole treatment at 25 000 cells per well. Cells were then treated with 100 ng/ml nocodazole (Sigma-Aldrich, # M1404). 20 hours after nocodazole treatment, cells were exposed to the test compounds at various concentrations appropriate to determine an IC50. 4 hours after compound addition, medium was carefully removed and 120 µl of Complete Tris Lysis Buffer (R60TX; MSD, Gaithersburg MD) was added to each well. Samples were then stored at -20°C.
The level of nucleophosmin (B23) Ser4 phosphorylation in these cell lysis samples was estimated by electrochemiluminescence detection using the Meso Scale Discovery ("MSD") Technology Platform (MSD, Gaithersburg MD). The protocol used was as recommended by the manufacturer with the use of a phospho-Mek1/2 antibody (Cell Signalling, #9121) as primary antibody, and is as follows.
The cell lysates were thawed at room temperature and 40 µl were incubated on 96-well MULTI-ARRAY High Bind plates (L11XB; MSD) for 1.5 - 2 hours at room temperature. The supernatants were then removed and 150 µl of a 5% (w/v) solution of Blocker A (R93AA; MSD) in Tris Wash Buffer (R61TX; MSD) were added to each well. The plates were then incubated for 1 hour at room temperature before removal of the Blocker A solution and washed 4 times with 200 µl Tris Wash Buffer. 25 µl primary antibody (anti-phospho-MEK1/2, Cell Signalling, #9121, rabbit polyclonal), diluted 1:250 in a 1% (w/v) solution of Blocker A in Tris Wash Buffer, were added to each well. The plates were then incubated for 1 hour at room temperature before removal of the antibody solution and washed 4 times with 200 µl Tris Wash Buffer. Then, 25 µl of labelled secondary antibody (SULFO-TAG Goat Anti-Rabbit IgGAntibody (R32AB; MSD), diluted 1:500 in a 1% (w/v) solution of Blocker A in Tris Wash Buffer) were added to each well. The plates were then incubated for 1 hour at room temperature before removal of the antibody solution and washed 4 times with 200 µl Tris Wash Buffer. Then, […] of 1x Read Buffer T (R92TC; MSD) were carefully added to each well and the plates were quantitatively detected for each well with a SECTOR™ Imager 6000 (MSD).
Inhibitory activity of the compounds (IC) was calculated as % inhibition of nucleophosmin (B23) Ser4 phosphorylation compared to cells not treated with nocodazole.

| IC50 [1] [µM] | IC50 [2] [µM] | IC50 [4] [µM] | SMILES | IC50 [3] [µM] |
| --- | --- | --- | --- | --- |
| < 1 | < 1 | < 0.1 | CCC1C(=O)N(C)c2cnc(Nc3ccc(C(=O)NCC4CCN(CC)CC4)cc3OC)nc2N1N(C)C (stereo not drawn) [Compound 3, 4-(8-Dimethylamino-7-ethyl-5-methyl-6-oxo-5,6,7,8-tetrahydro-pteridin-2-ylamino)-N-(1-ethyl-piperidin-4-ylmethyl)-3-methoxy-benzamide] | > 1 |
| < 1 | < 1 | < 0.1 | CCC1C(=O)N(C)c2cnc(Nc3ccc(C(=O)NC4CCN(C)CC4)cc3OC)nc2N1NC (stereo not drawn) [Compound 30, 4-(7-Ethyl-5-methyl-8-methylamino-6-oxo-5,6,7,8-tetrahydro-pteridin-2-ylamino)-3-methoxy-N-(1-methyl-piperidin-4-yl)-benzamide] | > 1 |
| < 1 | < 1 | < 0.1 | CCC1C(=O)N(C)c2cnc(Nc3ccc(C(=O)NCC4CCN(CC)CC4)cc3OC)nc2N1N(C)CC(C)C (stereo not drawn) [Compound 23, 4-[7-Ethyl-8-(isobutyl-methyl-amino)-5-methyl-6-oxo-5,6,7,8-tetrahydro-pteridin-2-ylamino]-N-(1-ethyl-piperidin-4-ylmethyl)-3-methoxy-benzamide] | > 1 |
| < 1 | < 1 | < 0.5 | CCC1C(=O)N(C)c2cnc(Nc3ccc(C(=O)NC4CCN(C)CC4)cc3OC)nc2N1N(C)CC1CC1 (stereo not drawn) [Compound 17, 4-[8-(Cyclopropylmethyl-methyl-amino)-7-ethyl-5-methyl-6-oxo-5,6,7,8-tetrahydro-pteridin-2-ylamino]-3-methoxy-N-(1-methyl-piperidin-4-yl)-benzamide] | > 1 |
| < 1 | < 1 | < 0.1 | CCC1C(=O)N(C)c2cnc(Nc3ccc(C(=O)N[C@H]4CC[C@H](N5CCN(CC6CC6)CC5)CC4)cc3OC)nc2N1NC (relative stereo) [Compound 31, N-[trans-4-(4-Cyclopropylmethyl-piperazin-1-yl)-cyclohexyl]-4-(7-ethyl-5-methyl-8-methylamino-6-oxo-5,6,7,8-tetrahydro-pteridin-2-ylamino)-3-methoxy-benzamide] | > 1 |
| < 1 | < 1 | < 0.1 | CCC1C(=O)N(C)c2cnc(Nc3ccc(C(=O)NC4CCN(C)CC4)cc3OC)nc2N1N(C)CC(C)C (stereo not drawn) [Compound 22, 4-[7-Ethyl-8-(isobutyl-methyl-amino)-5-methyl-6-oxo-5,6,7,8-tetrahydro-pteridin-2-ylamino]-3-methoxy-N-(1-methyl-piperidin-4-yl)-benzamide] | > 1 |
| < 1 | < 1 | < 0.5 | CCC1C(=O)N(C)c2cnc(Nc3ccc(C(=O)NCC4CCN(CC)CC4)cc3OC)nc2N1NC (stereo not drawn) [Compound 32, 4-(7-Ethyl-5-methyl-8-methylamino-6-oxo-5,6,7,8-tetrahydro-pteridin-2-ylamino)-N-(1-ethyl-piperidin-4-ylmethyl)-3-methoxy-benzamide] | > 1 |
| < 1 | < 1 | < 0.5 | CCC1C(=O)N(C)c2cnc(Nc3ccc(C(=O)NCC4CCN(CC)CC4)cc3OC)nc2N1N(C)Cc1ccccc1 (stereo not drawn) [Compound 21, 4-[8-(Benzyl-methyl-amino)-7-ethyl-5-methyl-6-oxo-5,6,7,8-tetrahydro-pteridin-2-ylamino]-N-(1-ethyl-piperidin-4-ylmethyl)-3-methoxy-benzamide] | > 1 |
| < 1 | < 1 | < 0.1 | CCC1C(=O)N(C)c2cnc(Nc3ccc(C(=O)N[C@H]4CC[C@H](N5CCN(CC6CC6)CC5)CC4)cc3OC)nc2N1N(C)CC (relative stereo) [Compound 26, N-[trans-4-(4-Cyclopropylmethyl-piperazin-1-yl)-cyclohexyl]-4-[7-ethyl-8-(ethyl-methyl-amino)-5-methyl-6-oxo-5,6,7,8-tetrahydro-pteridin-2-ylamino]-3-methoxy-benzamide] | > 1 |
| < 1 | < 1 | < 0.5 | CCC1C(=O)N(C)c2cnc(Nc3ccc(C(=O)NCC4CCN(CC)CC4)cc3OC)nc2N1N(C)CC1CCC1 (stereo not drawn) [Compound 34, 4-[8-(Cyclobutylmethyl-methyl-amino)-7-ethyl-5-methyl-6-oxo-5,6,7,8-tetrahydro-pteridin-2-ylamino]-N-(1-ethyl-piperidin-4-ylmethyl)-3-methoxy-benzamide] | > 1 |
| < 1 | < 1 | < 0.1 | CCC1C(=O)N(C)c2cnc(Nc3ccc(C(=O)NCC4CCN(Cc5ccccc5)CC4)cc3OC)nc2N1N(C)C (stereo not drawn) [Compound 12, N-(1-Benzyl-piperidin-4-ylmethyl)-4-(8-dimethylamino-7-ethyl-5-methyl-6-oxo-5,6,7,8-tetrahydro-pteridin-2-ylamino)-3-methoxy-benzamide] | > 1 |
| < 1 | < 1 | < 0.1 | CCC1C(=O)N(C)c2cnc(Nc3ccc(C(=O)NC4CCN(C)CC4)cc3OC)nc2N1N(C)Cc1ccccc1 (stereo not drawn) [Compound 15, 4-[8-(Benzyl-methyl-amino)-7-ethyl-5-methyl-6-oxo-5,6,7,8-tetrahydro-pteridin-2-ylamino]-3-methoxy-N-(1-methyl-piperidin-4-yl)-benzamide] | > 1 |
| < 1 | < 1 | < 0.1 | CCC1C(=O)N(C)c2cnc(Nc3ccc(C(=O)NC4CCN(C(C)C)CC4)cc3OC)nc2N1N(C)C (stereo not drawn) [Compound 4, 4-(8-Dimethylamino-7-ethyl-5-methyl-6-oxo-5,6,7,8-tetrahydro-pteridin-2-ylamino)-N-(1-isopropyl-piperidin-4-yl)-3-methoxy-benzamide] | > 1 |
| < 1 | < 1 | < 0.1 | CCC1C(=O)N(C)c2cnc(Nc3ccc(C(=O)NC4CCN(C)CC4)cc3OC)nc2N1N(C)CC1CCC1 (stereo not drawn) [Compound 33, 4-[8-(Cyclobutylmethyl-methyl-amino)-7-ethyl-5-methyl-6-oxo-5,6,7,8-tetrahydro-pteridin-2-ylamino]-3-methoxy-N-(1-methyl-piperidin-4-yl)-benzamide] | > 1 |
| < 1 | < 1 | < 0.1 | CCCN(C)N1c2nc(Nc3ccc(C(=O)N[C@H]4CC[C@H](N5CCN(CC6CC6)CC5)CC4)cc3OC)ncc2N(C)C(=O)C1CC (relative stereo) [Compound 19, N-[trans-4-(4-Cyclopropylmethyl-piperazin-1-yl)-cyclohexyl]-4-[7-ethyl-5-methyl-8-(methyl-propyl-amino)-6-oxo-5,6,7,8-tetrahydro-pteridin-2-ylamino]-3-methoxy-benzamide] | > 1 |
